# Assays:
# Assay in all cases: relative viability (nuclei count vs DMSO), 5 days (fraction); higher = more cells survive
# [1] = compound: CC(=O)Nc1cccc(-n2c(=O)n(C3CC3)c(=O)c3c(Nc4ccc(I)cc4F)n(C)c(=O)c(C)c32)c1 [Trametinib] + N=C(N)NC(=N)NCCc1ccccc1 [Phenformin] (partner 250 µM)
# Outline: (§1)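 Relative viability is defined as nuclei in treated wells over nuclei in vehicle wells. Duplicate plates were run and medians reported. Lung cancer cell lines in 1536-well plates were dosed by pin tool one day after seeding, with one drug or with a fixed anchor-drug dose plus five library-drug doses (not always all listed) in √10 steps, and nuclei were counted after 5 days.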
# [2] = compound: CN1C=C(C2=CC=CC=C21)/C=C\3/C4=C(C=CC=N4)NC3=O + C[C@@H](Oc1cc(-c2cnn(C3CCNCC3)c2)cnc1N)c1c(Cl)ccc(F)c1Cl [Crizotinib] (partner 1 µM)
# Outline: as §1
# [3] = compound: CN1C=C(C2=CC=CC=C21)/C=C\3/C4=C(C=CC=N4)NC3=O + O=C(CCCCCCC(=O)Nc1ccccc1)NO [Vorinostat] (partner 1 µM)
# Outline: as §1
# [4] = compound: CC(=O)Nc1cccc(-n2c(=O)n(C3CC3)c(=O)c3c(Nc4ccc(I)cc4F)n(C)c(=O)c(C)c32)c1 [Trametinib] + Cc1nc(NC(=O)N2CCC[C@H]2C(N)=O)sc1-c1ccnc(C(C)(C)C(F)(F)F)c1 [Alpelisib] (partner 2 µM)
# Outline: as §1
Cell Line,relative viability ([1]; first compound 0.0025 µM),relative viability ([1]; first compound 0.007906 µM),relative viability ([1]; first compound 0.025 µM),relative viability ([1]; first compound 0.07906 µM),relative viability ([1]; first compound 0.25 µM),relative viability ([2]; first compound 0.02 µM),relative viability ([2]; first compound 0.06325 µM),relative viability ([2]; first compound 0.2 µM),relative viability ([2]; first compound 0.6325 µM),relative viability ([2]; first compound 2 µM),relative viability ([3]; first compound 0.02 µM),relative viability ([3]; first compound 0.06325 µM),relative viability ([3]; first compound 0.2 µM),relative viability ([3]; first compound 0.6325 µM),relative viability ([3]; first compound 2 µM),relative viability ([4]; first compound 0.0025 µM),relative viability ([4]; first compound 0.007906 µM),relative viability ([4]; first compound 0.025 µM),relative viability ([4]; first compound 0.07906 µM),relative viability ([4]; first compound 0.25 µM)
HARA,0.399,0.426,0.386,0.373,0.214,0.975,0.958,0.933,1.02,1.09,0.511,0.524,0.531,0.491,0.5,0.758,0.657,0.44,0.498,0.241
HCC-15,0.361,0.229,0.18,0.179,0.145,0.805,0.795,0.887,0.897,0.955,0.915,0.824,0.867,0.74,0.706,0.645,0.436,0.275,0.204,0.148
HCC-44,0.249,0.181,0.187,0.0805,0.0783,0.793,0.73,0.722,0.712,0.715,1.03,1.09,1.1,1.12,1.02,0.774,0.618,0.614,0.528,0.187
HCC-78,0.678,0.501,0.482,0.489,0.401,0.335,0.26,0.326,0.337,0.372,0.431,0.46,0.381,0.424,0.427,0.304,0.242,0.226,0.205,0.224
HCC-366,0.57,0.574,0.372,0.49,0.226,0.351,0.387,0.579,0.472,0.398,0.239,0.32,0.28,0.226,0.174,0.214,0.241,0.182,0.143,0.0782
HCC-827,0.374,0.373,0.334,0.313,0.313,0.835,0.916,,0.96,0.978,0.721,0.87,,0.703,0.714,1.01,0.753,0.699,0.591,0.399
IA-LM,,,,,,0.732,0.724,0.668,0.615,0.521,1.07,1.2,1.04,,0.927,0.656,0.393,0.129,0.104,0.109
NCI-H522,0.575,0.657,0.506,0.574,0.434,,,,,,0.734,0.893,0.84,0.899,0.953,,,,,
NCI-H1299,,,,,,0.937,0.945,0.911,1.07,0.901,,,,,,1.04,1.08,0.911,0.799,0.744
NCI-H1395,0.479,0.445,0.432,0.416,0.328,,,,,,0.679,0.725,0.564,0.662,0.604,1.02,0.903,1.39,1.09,0.652
NCI-H1563,0.637,0.636,0.676,0.597,0.59,0.871,0.897,0.736,0.893,0.971,,,,,,0.94,0.985,0.992,0.968,0.628
NCI-H1623,0.588,0.48,0.291,0.396,0.634,,,,,,,,,,,,,,,
NCI-H1648,,,,,,,,,,,0.557,0.391,0.425,0.327,0.64,,,,,
NCI-H1650,0.388,0.538,0.495,0.325,0.151,0.908,0.889,0.856,1.06,1.05,0.548,0.532,0.566,0.549,0.554,,,,,
NCI-H1703,,,,,,0.724,0.783,0.556,0.699,0.604,,,,,,0.367,0.373,0.28,0.306,0.29
NCI-H1792,0.309,0.206,0.071,0.157,0.0553,0.759,0.999,0.87,,0.898,,,,,,0.644,0.53,0.537,0.382,0.255
NCI-H1793,0.329,0.314,0.283,0.176,0.219,,,,,,0.774,0.733,0.522,0.681,0.704,0.578,0.457,0.28,0.425,0.29
NCI-H2342,0.49,0.549,,0.403,0.56,,,,,,0.661,0.787,0.788,0.613,0.684,,,,,
SW 900,0.579,0.532,0.457,0.487,0.143,,,,,,0.588,,,0.352,0.463,,,,,

# From the supplement of paper PMC10307832
